Test [1] has as its system broad spectrum of microorganisms. The conditions noted are these: background statement; cited from earlier work.
Test [2] concerns biofilm fouling of CO2 scrubbers. Nature of the test: Field test of CO2 scrubbers in an ethanol fermentation plant. The conditions noted are these: 30 minute treatment at 75-100 ppm PFA, ambient temperature, 80 gallons per minute. On the procedure: Removal and/or prevention of biofilm fouling of CO2 scrubbers was tested with peroxyformic acid. Such scrubbers were evaluated in an ethanol fermentation plant which conventionally employs CIP cleaning process with hot caustic recirculated through the system every few weeks to clean any biofilm which has accumulated since the prior CIP cleaning cycle. This problem to be solved is the prevention of biofilm in the systems instead of removal of the biofilm after the same has been formed. The prevention of biofilm is more desirable than removal, as biofilm scuffs off and undesirably plugs lines within the system and in an fermentation facility the stream of reclaimed ethanol that goes back into the process may undesirably carry microbes from the biofilm. As a result, the use of performic acid was compared to the conventional CIP cleaning for efficacy. […]

The next test relates to Pseudomonas biofilm. Nature of the test: Pseudomonas biofilm on polycarbonate coupons, PFA compared with another peroxyacid. The format is cell-based, Pseudomonas aeruginosa. The following applies: 50 ppm PFA vs 200 ppm PAA, hard water pH 7.71, 3 hrs exposure. On the procedure: Additional biocidal performance of performic acid was evaluated for log reduction of Pseudomonas aeruginosa in comparison to another peroxyacid. A Pseudomonas biofilm was treated with 50 ppm active of PFA and compared to efficacy treated with 200 ppm PAA. Pseudomonas biofilms were grown in a CDC biofilm reactor on a poly carbonate coupons. Appropriate concentration of the treatment substance were diluted in hard water at pH 7.71 diluent. Test chemicals were exposed for 3 hrs after which they were treated with 16 mLs of thiosulfate to neutralize any oxidants. The untreated control and treated Pseudomonas were plated on a TGE media and incubated at 35° C. for 48 hrs. A […] reduction was monitored by colony counting of Pseudomonas on plates.

Test [3] relates to P. aeruginosa ATCC 15442 biofilm. Nature of the test: Reduction of P. aeruginosa biofilm at different exposure times (ASTM E2562-12 / E2871-12). Format: cell-based, Pseudomonas aeruginosa ATCC 15442. The conditions noted are these: 50 ppm PFA for 15 min to 3 hours vs 200 ppm POAA for 3 hours. As for the experimental part:
Reduction of P. aeruginosa Biofilm Using Different Exposure Times of Peroxyformic Acid. P. aeruginosa ATCC 15442 biofilm was grown on the surface of 24 polycarbonate coupons following ASTM method E2562-12: Standard Test Method for Quantification of Pseudomonas aeruginosa Biofilm Grown with High Shear and Continuous Flow using CDC Biofilm Reactor. After 48 hours of biofilm establishment, the coupons were removed from the reactor and placed into individual centrifuge tubes. Three coupons per test condition were tested for disinfectant efficacy using ASTM method E2871-12: Standard Test Method for Evaluating Disinfectant Efficacy against Pseudomonas aeruginosa Biofilm Grown in CDC Biofilm Reactor using Single Tube Method. Sets of three coupons were exposed to 4 mL of 50 ppm PFA for exposure times of 15 minutes, 30 minutes, 1 hour, 2 hours and 3 hours, while coupons treated with 200 ppm POAA were exposed for 3 hours only. […] This was followed with a series of vortexing and sonicating steps to remove any biofilm from the coupon surface into the solution for plating and enumeration.

Test [4] relates to Pseudomonas aeruginosa ATCC 15442. Nature of the test: Biocidal performance of performic acid, log reduction in synthetic hard water. The conditions noted are these: 0.5, 1.0, 2.0 ppm PFA; 10 minutes and 4 hours contact; 25° C. Format: cell-based. As for the experimental part: Additional biocidal performance of performic acid was evaluated for log reduction of Pseudomonas aeruginosa as shown in Table 2.

As to `CC(=O)OO` [Peracetic acid], in test [1], the “concentration at which it is a good biocide” value is “greater than 80 part per million”.
Turning to `O=COO` [peroxyformic acid], the “biofilm formation in CO2 scrubbers (in words)” value in test [2] is “biofilm did not form”. Besides, the “reduction in Pseudomonas aeruginosa compared with peracetic acid (in words)” value in the test with Pseudomonas biofilm is “substantially increased reduction in Pseudomonas aeruginosa”. The “anti-biofilm efficacy compared with POAA (in words)” value in test [3] was “greater anti-biofilm efficacy with shorter exposure time and lower concentrations than POAA”. Further, in test [4], the “biocidal efficacy (in words)” value is “beneficially efficacy”.

(Values after patent publication US12290071B2, “Performic acid biofilm prevention for industrial CO2 scrubbers” (ECOLAB USA INC., priority 2016, dated 2025).)
